Results reported in ChEMBL document CHEMBL4819039, “Taxonomy Driven Discovery of Polyketides from Aspergillus californicus” (2021).
Converted amounts (≈) assume the structure as drawn. The source made the active and inactive calls. The rule behind the calls is not given here.

Tests used:
Staphylococcus aureus [1] = experiment: Antibacterial activity against methicillin-resistance Staphylococcus aureus MB5393 assessed as inhibition of bacterial growth; type: functional
Staphylococcus aureus [2] = experiment: Antibacterial activity against methicillin-sensitive Staphylococcus aureus ATCC 29213 assessed as inhibition of bacterial growth; type: functional
Escherichia coli = experiment: Antibacterial activity against Escherichia coli ATCC 25922 assessed as inhibition of bacterial growth; type: functional
Klebsiella pneumoniae = experiment: Antibacterial activity against Klebsiella pneumoniae ATCC 700603 assessed as inhibition of bacterial growth; type: functional
A549 = experiment: Cytotoxicity against human A549 cells after 72 hrs by MTT assay; type: functional, cell-based
A2058 = experiment: Cytotoxicity against human A2058 cells after 72 hrs by MTT assay; type: functional, cell-based
HepG2 = experiment: Cytotoxicity against human HepG2 cells after 72 hrs by MTT assay; type: functional, cell-based
MCF7 = experiment: Cytotoxicity against human MCF7 cells after 72 hrs by MTT assay; type: functional, cell-based
MIA PaCa-2 = experiment: Cytotoxicity against human MIA PaCa-2 cells after 72 hrs by MTT assay; type: functional, cell-based
HL-60 = experiment: Cytotoxicity against human HL-60 cells after 72 hrs by CCK-8 assay; type: functional, cell-based

Row | Structure (SMILES) | MIC (Staphylococcus aureus [1]) [mg/L] | MIC (Staphylococcus aureus [2]) [mg/L] | MIC (Escherichia coli) [mg/L] | MIC (Klebsiella pneumoniae) [mg/L] | Activity (A549) | Activity (A2058) | Activity (HepG2) | Activity (MCF7) | Activity (MIA PaCa-2) | Activity (HL-60) | Activity (Escherichia coli) | Activity (Klebsiella pneumoniae)
1 | CCCCC[C@H](O)C(=O)C[C@@H]1OC(=O)c2c(O)ccc(CC=C(C)C)c21 | > 64 | > 64 | > 64 | > 64 | inactive | inactive | inactive | inactive | inactive | inactive |  | 
2 | CCCCCC(=O)[C@@]1(O)C=Cc2c(CC=C(C)C)ccc(O)c2[C@@H]1O | > 64 | > 64 | > 64 | > 64 | inactive | inactive | inactive | inactive | inactive | inactive |  | 
3 | CCCCC[C@H](O)C(=O)C[C@H]1OC(=O)c2c(O)ccc(CC=C(C)C)c21 | > 64 | > 64 | > 64 | > 64 | inactive | inactive | inactive | inactive | inactive | inactive |  | 
4 | CCCCC/C=C/C=C/c1cccc(O)c1CO | 48 (≈ 195 µM) | 48 (≈ 195 µM) |  |  | inactive | inactive | inactive | inactive | inactive | inactive | inactive | inactive
5 | CCCCCC(=O)[C@]1(O)C=Cc2c(CC=C(C)C)ccc(O)c2[C@H]1O | > 64 | > 64 | > 64 | > 64 | inactive | inactive | inactive | inactive | inactive | inactive |  | 
6 | CCCCC[C@H](O)[C@@H](O)C[C@H]1OC(=O)c2c(O)ccc(CC=C(C)C)c21 | > 64 | > 64 | > 64 | > 64 | inactive | inactive | inactive | inactive | inactive | inactive |  | 
7 | CCCCC[C@H](O)[C@@H](O)C[C@@H]1OCc2c(O)ccc(CC=C(C)C)c21 | > 64 | > 64 | > 64 | > 64 | inactive | inactive | inactive | inactive | inactive | inactive |  | 
